Our source for the IC50 values is publication PMC3841297 (Chemical biology & drug design, 2013).

The experiment has as its target SrtA (SrtAΔN59, residue 60–206) (Staphylococcus aureus, UniProt Q2FV99). Put plainly: SrtA enzymatic inhibition, FRET assay. Type of experiment: biochemical.

Take `O=C(O)COc1ccccc1C1Nc2cccc3cccc(c23)N1` [Compound 1, (2-(2,3-dihydro-1H-perimidin-2-yl)-phenoxy)-acetic acid]: the IC50 (usually the point on the concentration scale where inhibition reaches its midpoint) was 47.2 ± 5.9 µM.
